From PubChem BioAssay AID743417 (Broad Institute, 2014)
Inconclusive results are not listed.

Each compound was assayed on Clone20 osteoblast Shn3 3'UTR firefly luciferase, 24 h (assay: Schnurri-3 3'UTR-luciferase signal suppressors – cell-based, Clone20 osteoblasts, luminescence, dry powder, set 2, dose response (AID 743417)).

| Compound | AC50 [nM] |
| --- | --- |
| CN(C)c1ccc(/C=C/c2nc3ccccc3s2)cc1 | 494 |
| O=C(c1cnc(N2CCN(c3ccccn3)CC2)c2ccccc12)N1CCN(c2cccc(Cl)c2)CC1 | 1990 |
| Cc1nc2scc(C)n2c(=O)c1S(=O)(=O)Nc1ccc(N2CCOCC2)c(Cl)c1 | 1670 |
| Cc1nn(Cc2noc(C(=O)NC3CCC(C)CC3)n2)c(C)c1Br (stereo not drawn) | 3280 |
| COc1ccccc1NC(=O)Cn1c(C)cc(=O)c2cccc(OC)c21 | 3160 |
| CN(Cc1ccc(OCC(O)CN2CCCCC2)cc1)Cc1ccnc2ccccc12 (stereo not drawn) | 1210 |
| O=C(Cc1ccc(Cl)cc1Cl)Nc1ccncc1Cl | 1630 |
| Cc1ccccc1C(=O)NC(=S)Nc1ccc(N2CCN(C(=O)c3ccccc3)CC2)cc1 | 1880 |
| CCN1CCN(Cc2ccc(NC(=O)c3cc(NC(=O)c4cncc(-c5cccs5)c4)cc(OC)c3)cc2C(F)(F)F)CC1 | 9680 |
| C=CCOC(=O)c1[nH]c2c(c1C)C(=O)CC(c1cc(OC)c(OC)c(OC)c1)C2 (stereo not drawn) | 1830 |
| COc1ccc(CNC(=O)C(c2ccc(C)cc2)N(Cc2cccs2)C(=O)c2ccc3c(c2)OCCO3)cc1 (stereo not drawn) | 8100 |
| C=C1C(=O)O[C@@H]2C[C@@H](C)[C@@H]3C=CC(=O)[C@@]3(C)[C@@H](OC(=O)CC(=O)O[C@H]3[C@@H]4C(=C)C(=O)O[C@@H]4C[C@@H](C)[C@@H]4C=CC(=O)[C@]43C)[C@H]12 | 292 |
| CCCOC(=O)c1[nH]c2c(c1C)C(=O)CC(c1cc(OC)c(OC)c(OC)c1)C2 (stereo not drawn) | 1920 |
| Cc1c(C(C)C)c(=O)n(-c2ccc(S(=O)(=O)NCc3ccccc3)cc2)n1C | 1180 |
| CNc1ccccc1C(C)(C)c1cc(-c2cccc(OC)c2)no1 | 1920 |
| Cc1ccc(NC(=O)C2=C(c3ccccc3)S(=O)(=O)CCS2(=O)=O)cc1 | 558 |
| O=C(Nc1cccc(-c2ccc(N3CCCCC3)nn2)c1)C(F)(F)F | 9070 |
| CCOc1ccc(OCC(=O)N(CCC2=CCCCC2)c2c(N)n(Cc3ccccc3)c(=O)[nH]c2=O)cc1 | 8660 |
| CCn1c2ccccc2c2cc(CNCc3ccc(OC)cc3OC)ccc21 | 14700 |
| N=C1S/C(=C\c2ccc(-c3cccc(Cl)c3)o2)C(=O)N1c1nccs1 | 2820 |
| Cc1ccc(S(=O)(=O)N2CCN(c3ncnc4ccccc34)CC2)cc1 | 1560 |
| CC(C)(C)n1ncc2c(=O)n(Cc3cccc(Cn4cnc5c(cnn5C(C)(C)C)c4=O)c3F)cnc21 | 1090 |
| OC1(c2ccc(OC(F)F)cc2)CSC(=Nc2cccnc2)N1C1CC1 (stereo not drawn) | 5400 |
| COc1ccc(NC(=O)c2sc3ncnc(N4CCN(c5ccccn5)CC4)c3c2C)cc1Cl | 4080 |
| Cc1ccc2nc(NNC(=O)c3ccc(S(=O)(=O)N4CCc5ccccc5C4)cc3)sc2c1 | 1620 |
| Cn1c(/C=C/c2ccc([N+](=O)[O-])o2)nc2ccccc2c1=O | 2370 |
| CCN(CC)S(=O)(=O)c1ccc(S(=O)(=O)Nc2c(C)nn(C)c2C)cc1 | 2240 |

| Compound | AC50 [nM] |
| --- | --- |
| COc1cccc(CNc2nc(NCC3CC3)nc3ccsc23)c1 | 5860 |
| O=C(NNC(=S)Nc1ccc(Cl)c(Cl)c1)c1ccccn1 | 2330 |
| COc1cccc(C(c2nnnn2-c2ccc3c(c2)OCCO3)N2CCC(n3c(=O)[nH]c4ccccc43)CC2)c1OC (stereo not drawn) | 3740 |
| CS(=O)(=O)N1CCN(c2ccc(NC(=O)c3ccc([N+](=O)[O-])o3)cc2)CC1 | 5650 |
| O=C1CC(Sc2nnnn2-c2ccccc2)C(=O)N1c1cccc(Cl)c1 (stereo not drawn) | 8530 |
| CS(=O)(=O)c1ncc(Cl)c(C(=O)Nc2ccc(OC(F)F)cc2)n1 | 682 |
| CC(=O)NC(c1cc(Cl)c2cccnc2c1O)C(C)C (stereo not drawn) | 2960 |
| C=CCSc1nc2ccccc2n1C(=O)/C=C/c1cc(OC)c(OC)c(OC)c1 | 1130 |
| N=c1n(Cc2ccc(Cl)cc2)c2ccccc2n1CC(O)COc1ccccc1 (stereo not drawn) | 2340 |
| CSc1nc(N2CCN(Cc3ccc4c(c3)OCO4)CC2)c2ccccc2n1 | 24100 |
| CC(=O)c1cn(Cc2ccccc2C#N)c2ccccc12 | 527 |
| O=C(NNc1ccnc2cc(Cl)ccc12)C1CCCCC1 | < 260 |
| Cc1c(C(=O)N(Cc2cccc(Br)c2)C2CCS(=O)(=O)C2)oc2ccccc12 (stereo not drawn) | 35900 |
| Cc1ccn2cc(-c3ccc(O)c(O)c3)nc2c1 | 2440 |
| Oc1c(CN2CCCCC2)ccc2cccnc12 | 2110 |
| CS(=O)(=O)c1ncc(Cl)c(C(=O)Nc2ccc(N3CCOCC3)cc2)n1 | 1210 |
| CC1CCC2C(=O)N(c3ccc(Cc4ccncc4)cc3)C(=O)C2C1 (stereo not drawn) | 2650 |
| CCOc1ccc(C(=O)C(CCC(CN(C)C)C(=O)c2ccc(OCC)cc2)CN(C)C)cc1 (stereo not drawn) | 1610 |
| Cc1cc(C(=O)NC2CCCc3c2cnn3-c2cccc(C)c2C)n(C)n1 (stereo not drawn) | < 260 |
| COc1ccc(CC(N)c2csc(NC(=O)c3cc(C(C)(C)C)nn3Cc3ccccc3)n2)cc1 (stereo not drawn) | 9530 |
| CCOC(=O)c1cn(CC(=O)Nc2cccc(Cl)c2C)nn1 | 4650 |
| CC(C)n1c(/C=C/[C@@H](O)C[C@@H](O)CC(=O)O)c(-c2ccc(F)cc2)c2ccccc21 | 2400 |
| COc1ccc(CNC(=O)c2cccc3c(-c4cccnc4)coc23)cc1OC | 900 |
| Cc1ccnc2c1ccc1c(C)ccnc12 | 857 |
| COc1ccc(-c2cc(N)n(S(=O)(=O)c3c(F)c(F)c(F)c(F)c3F)n2)cc1OC | 896 |
| Cc1cc(C)c(C)c(S(=O)(=O)N2CCN(c3ncnc4ccccc34)CC2)c1C | 1460 |
